Assay results as given in patent US20110086429A1, “METHODS AND DEVICES FOR DETECTING OZONE AND CARBONYL-CONTAINING COMPOUNDS” (SIGMA-ALDRICH CO., priority 2007, published 2011).
Converted amounts (≈) assume the structure as drawn.

Test: Solubility in acetonitrile, DMSO and their mixtures
Type: physicochemical

| SMILES | solubility in DMSO (in words) (DMSO) | solubility in acetonitrile (in words) (acetonitrile) | solubility (organic solvent or mixture, acetonitrile, FIG. 3 at 25° C.) |
| --- | --- | --- | --- |
| O=[N+]([O-])c1ccc(NN=Cc2ccncc2)c([N+](=O)[O-])c1 [pyridine-4-aldehyde 2,4-DNPhydrazone, pyridine-4-aldehyde 2,4-dinitrophenylhydrazone] | relatively high concentration | poor solubility | – |
| O=Cc1ccncc1 [pyridine-4-aldehyde] | – | – | ~790 µM (≈ 84.6 µg/mL) |
